Source: patent US20230128114A1, “METHODS AND COMPOSITIONS FOR TREATING OR PREVENTING AN INFLAMMATORY CONDITION” (priority 2020, published 2023)
Read-outs that look alike come from different tables or passages of the source.

Columns and labels:
LPS-induced sepsis [1] = test: LPS-induced sepsis in mice, intraperitoneal administration: serum immune marker panel (Luminex/ELISA); assay type: in vivo, C57BL/6 mice
Protocol: (§1) Male C57BL/6 mice weighing 10-20 g were used. Vehicle and active agents (i.e., CBD and hydroxychloroquine) alone or in combination were administered intraperitoneally (IP) (Table 4) or orally (Table 5) at 1 hour before LPS (100 μg/100 μL/mouse) injected intravenously (IV). At 2 hours after LPS injection, blood was collected from all mice by cardiac puncture, sera processed and assayed for biomarkers using either the Th17-plex for IL-1β, IL-2, IL-10, IL-12 (p70), IFN-γ and TNF-α by Luminex, plus IL-6 and D-dimer by ELISA, or the 23-plex for IL-1α, IL-1β, IL-2, IL-3, IL-4, IL-5, IL-6, IL-9, IL-10, IL-12(p40), IL-12(p70), IL-13, IL-17A, Eotaxin, G-CSF, GM-CSF, IFN-γ, KC, MCP-1(MCAF), MIP-1α, MIP-1β, RANTES, and TNF-α by Luminex, plus IL-6 by ELISA. ANOVA followed by Dunnett's test was applied for comparison between vehicle and treatment groups. p<0.05 is considered significant.

LPS-induced sepsis [2] = test: LPS-induced sepsis in mice, oral administration: serum 23-plex immune marker panel; assay type: in vivo, C57BL/6 mice
Protocol: as §1

[3] = tested on: collagen-induced arthritis; test: Collagen-induced arthritis; assay type: in vivo, Lewis rats; design: key to Clinical score Day 24, relative reduction / Pannus score, relative reduction / Total histology score, relative reduction: fractional reduction vs vehicle control, sham-baseline subtracted
Protocol: Female Lewis rats were challenged with porcine type-II collagen with Freund's adjuvant on Day 1 (0.2 mg/0.2 mL/rat) by subcutaneous injection at the base of the tail to induce arthritis. A booster injection at 0.1 mg/0.1 mL/rat) was administered on Day 7. On Day 16, rats were allocated into groups of six based on hind paw volume, with animals allocated into groups to provide a similar distribution of hind paw volumes.
Vehicle and active agents (i.e., CBD and hydroxychloroquine) alone or in combination were administered intraperitoneally (IP) once a day starting from Day 17 to Day 30, i.e., for a total of 14 consecutive days.
Disease was assessed by measuring hind paw volume with plethysmometer and using a qualitative severity score system as outlined in Table 32 on Day 1, 7, 10, 14, 16, 18, 20, 22, 24, 26, 28 and 30.
Post-termination on Day 30, blood was collected from all rats and analysed for levels of the inflammatory cytokines IL-1β, IL-6 and TNF-α by ELISA. Both hind paws were harvested, weighed and formalin-fixed for histopathology. Tissue was assessed to evaluate cartilage and bone destruction by pannus formation and mononuclear cell infiltration in synovial tissues according to the scoring matrices set out in Tables 33 and 34. A total histology score, being the sum of the pannus formation and mononuclear cell infiltration score, was also calculated.
For synergy analysis, data were baseline subtracted using sham treated […] (i.e., no collagen injection), before normalising the values relative to vehicle control. Synergy was calculated using the statistical methods described elsewhere herein.

[4] = tested on: human peripheral blood mononuclear cells (PBMCs) stimulated with bacterial lipopolysaccharide (LPS); test: Cytokine release from LPS-stimulated human PBMCs (checkerboard, Luminex), Bliss synergy; assay type: cell-based; settings: PBMC
Protocol: The anti-inflammatory activity the combination of CBD and hydroxychloroquine was assessed by determining cytokine release from human peripheral blood mononuclear cells (PBMCs) stimulated with bacterial lipopolysaccharide (LPS) using a Luminex based assay. A 96-well microtitre plate-based checkerboard assay with seven concentrations (including the no drug control) of CBD and hydroxychloroquine were assessed in combination was used to determine the drug-drug interaction. Briefly, frozen PMBCs from two independent donors were thawed, diluted in culture medium, seeded into 96-well microtitre plates and incubated at 37° C., 5% CO2 for 1 hour prior to the addition of test compounds. After the addition of the test compounds the cells were returned to the incubator for 1 hour, after which LPS was added to the wells. Plates were incubated at 37° C., 5% CO2 for 24 hours. After 24 hours, cell culture supernatants were removed and analysed for cytokine levels using Luminex methodology according to manufacturers' instructions. All values had the vehicle background subtracted prior to further analysis. Three plates were set up in parallel using the PBMCs from the same donor. Inhibition of cytokine release was determined relative to the no treatment control (i.e., that was stimulated with LPS) and averaged across the three replicates. A cytotoxicity assay using AlmarBlue with the identical plate set up was performed in parallel.
Drug synergy was determined using the Bliss Independence method where the predicted effect of the drug combination is calculated using the equation: […]
Synergy values for each combination of drug concentrations were calculated using the Excess Over Bliss method (the difference between the observed and predicted inhibition) described by, e.g., Liu et al. (2018, Statistics in Biopharmaceutical Research, 10: 112-122, where a value greater than 0 is indicative of synergy and the higher the value the stronger the synergy.

[5] = tested on: LPS-induced pulmonary inflammation; test: LPS-induced pulmonary inflammation: BALF cytokines, synergy analysis; assay type: in vivo, C57BL/B6 mice; settings: CBD 1 mg/kg, HCQ 25 mg/kg, alone or combined; observed
[6] = hydroxychloroquine 1, 5, 10, 25, 50 and 100 mg/kg IP
[7] = hydroxychloroquine 50 and 100 mg/kg IP
[8] = hydroxychloroquine 20 mg/kg PO alone
[9] = CBD 1 mg/kg, HCQ 2.5 mg/kg, alone or combined, observed
[10] = CBD 1 mg/kg, HCQ 2.5 mg/kg, alone or combined, serum
[11] = HCQ 25 mg/kg alone vs CBD 1 mg/kg + HCQ 2.5 mg/kg
[12] = HCQ 25 mg/kg alone vs CBD 1 mg/kg + HCQ 2.5 mg/kg, serum

CCN(CCO)CCCC(C)Nc1ccnc2cc(Cl)ccc12 (stereo not shown) [HCQ]
D-dimer level vs vehicle group (LPS-induced sepsis [1]; [6]): dose-dependent increase | IL-10 level vs vehicle group (LPS-induced sepsis [1]; [6]): significant (p<0.05) increase | IFN-γ level vs vehicle group (LPS-induced sepsis [1]; [7]): moderate decrease | IL-1β level vs vehicle group (LPS-induced sepsis [1]; [7]): significant (p<0.05) decreases | IL-2 level vs vehicle group (LPS-induced sepsis [1]; [7]): significant (p<0.05) decreases | IL-12(p70) level vs vehicle group (LPS-induced sepsis [1]; [7]): moderate decrease | TNF-α level vs vehicle group (LPS-induced sepsis [1]; [7]): moderate decrease | Effect on biomarker levels (LPS-induced sepsis [2]; hydroxychloroquine 2 mg/kg PO alone): little or no effect | LPS-induced IL-1α release vs vehicle group (LPS-induced sepsis [2]; [8]): moderate suppression | LPS-induced IL-1β release vs vehicle group (LPS-induced sepsis [2]; [8]): moderate suppression | LPS-induced IL-2 release vs vehicle group (LPS-induced sepsis [2]; [8]): moderate suppression | LPS-induced IL-4 release vs vehicle group (LPS-induced sepsis [2]; [8]): moderate suppression | LPS-induced IL-5 release vs vehicle group (LPS-induced sepsis [2]; [8]): moderate suppression | LPS-induced IL-9 release vs vehicle group (LPS-induced sepsis [2]; [8]): moderate suppression | Clinical score Day 24, relative reduction [3, 9]: 0.18 | Pannus score, relative reduction [3, 9]: 0.07 | Paw volume Day 24, relative reduction [3, 9]: 0.04 | Total histology score, relative reduction [3, 9]: 0.15 | Relative reduction in serum cytokine levels: IL-1β [3, 10]: 0.37 | Relative reduction in serum cytokine levels: IL-6 [3, 10]: 0.51 | Clinical score Day 24, reduction in disease severity [3, 11]: 0.21 | Clinical score Day 30, reduction in disease severity [3, 11]: 0.26 | Mononuclear cell infiltration, reduction in disease severity [3, 11]: 0.24 | Pannus score, reduction in disease severity [3, 11]: 0.28 | Paw volume Day 24, reduction in disease severity [3, 11]: 0.10 | Paw volume Day 30, reduction in disease severity [3, 11]: 0.20 | Total histology score, reduction in disease severity [3, 11]: 0.26 | IL-1B, reduction [3, 12]: 0.25 | IL-6, reduction [3, 12]: 0.36 | inhibition at 0.63 µg/mL ([4]; Donor 1, HCQ 0.63 μg/mL alone, read-out: FIE (fractional inhibitory effect), IL-1α release): 3% | inhibition at 0.63 µg/mL ([4]; Donor 1, HCQ 0.63 μg/mL alone, read-out: FIE (fractional inhibitory effect), IL-1β release): 8% | inhibition at 0.63 µg/mL ([4]; Donor 1, HCQ 0.63 μg/mL alone, read-out: FIE (fractional inhibitory effect), IL-6 release): 12% | inhibition at 0.63 µg/mL ([4]; Donor 1, HCQ 0.63 μg/mL alone, read-out: FIE (fractional inhibitory effect), TNF-α release): 0% | inhibition at 1.25 µg/mL ([4]; Donor 1, HCQ 1.25 μg/mL alone, read-out: FIE (fractional inhibitory effect), IL-1α release): 1% | inhibition at 1.25 µg/mL ([4]; Donor 1, HCQ 1.25 μg/mL alone, read-out: FIE (fractional inhibitory effect), IL-1β release): 7% | inhibition at 1.25 µg/mL ([4]; Donor 1, HCQ 1.25 μg/mL alone, read-out: FIE (fractional inhibitory effect), IL-6 release): 0% | inhibition at 1.25 µg/mL ([4]; Donor 1, HCQ 1.25 μg/mL alone, read-out: FIE (fractional inhibitory effect), TNF-α release): 8% | inhibition at 2.5 µg/mL ([4]; Donor 1, HCQ 2.50 μg/mL alone, read-out: FIE (fractional inhibitory effect), IL-1α release): 12% | inhibition at 2.5 µg/mL ([4]; Donor 1, HCQ 2.50 μg/mL alone, read-out: FIE (fractional inhibitory effect), IL-1β release): 8% | inhibition at 2.5 µg/mL ([4]; Donor 1, HCQ 2.50 μg/mL alone, read-out: FIE (fractional inhibitory effect), IL-6 release): 10% | inhibition at 2.5 µg/mL ([4]; Donor 1, HCQ 2.50 μg/mL alone, read-out: FIE (fractional inhibitory effect), MIP-1α release): 0% | inhibition at 2.5 µg/mL ([4]; Donor 1, HCQ 2.50 μg/mL alone, read-out: FIE (fractional inhibitory effect), TNF-α release): 5% | inhibition at 5 µg/mL ([4]; Donor 1, HCQ 5.00 μg/mL alone, read-out: FIE (fractional inhibitory effect), IL-1α release): 24% | inhibition at 5 µg/mL ([4]; Donor 1, HCQ 5.00 μg/mL alone, read-out: FIE (fractional inhibitory effect), IL-1β release): 17% | inhibition at 5 µg/mL ([4]; Donor 1, HCQ 5.00 μg/mL alone, read-out: FIE (fractional inhibitory effect), IL-6 release): 8% | inhibition at 5 µg/mL ([4]; Donor 1, HCQ 5.00 μg/mL alone, read-out: FIE (fractional inhibitory effect), TNF-α release): 2% | inhibition at 10 µg/mL ([4]; Donor 1, HCQ 10.00 μg/mL alone, read-out: FIE (fractional inhibitory effect), IL-1α release): 50% | inhibition at 10 µg/mL ([4]; Donor 1, HCQ 10.00 μg/mL alone, read-out: FIE (fractional inhibitory effect), IL-1β release): 68% | inhibition at 10 µg/mL ([4]; Donor 1, HCQ 10.00 μg/mL alone, read-out: FIE (fractional inhibitory effect), IL-6 release): 0% | inhibition at 10 µg/mL ([4]; Donor 1, HCQ 10.00 μg/mL alone, read-out: FIE (fractional inhibitory effect), TNF-α release): 4% | inhibition at 20 µg/mL ([4]; Donor 1, HCQ 20.00 μg/mL alone, read-out: FIE (fractional inhibitory effect), IL-1α release): 54% | inhibition at 20 µg/mL ([4]; Donor 1, HCQ 20.00 μg/mL alone, read-out: FIE (fractional inhibitory effect), IL-1β release): 81% | inhibition at 20 µg/mL ([4]; Donor 1, HCQ 20.00 μg/mL alone, read-out: FIE (fractional inhibitory effect), IL-6 release): 12% | inhibition at 20 µg/mL ([4]; Donor 1, HCQ 20.00 μg/mL alone, read-out: FIE (fractional inhibitory effect), MIP-1α release): 0% | inhibition at 20 µg/mL ([4]; Donor 1, HCQ 20.00 μg/mL alone, read-out: FIE (fractional inhibitory effect), TNF-α release): 30% | inhibition at 0.63 µg/mL ([4]; Donor 2, HCQ 0.63 μg/mL alone, read-out: FIE (fractional inhibitory effect), IL-1α release): 7% | inhibition at 0.63 µg/mL ([4]; Donor 2, HCQ 0.63 μg/mL alone, read-out: FIE (fractional inhibitory effect), IL-1β release): 6% | inhibition at 1.25 µg/mL ([4]; Donor 2, HCQ 1.25 μg/mL alone, read-out: FIE (fractional inhibitory effect), IL-1α release): 11% | inhibition at 2.5 µg/mL ([4]; Donor 2, HCQ 2.50 μg/mL alone, read-out: FIE (fractional inhibitory effect), IL-1α release): 19% | inhibition at 2.5 µg/mL ([4]; Donor 2, HCQ 2.50 μg/mL alone, read-out: FIE (fractional inhibitory effect), IL-1β release): 7% | inhibition at 5 µg/mL ([4]; Donor 2, HCQ 5.00 μg/mL alone, read-out: FIE (fractional inhibitory effect), IL-1α release): 49% | inhibition at 5 µg/mL ([4]; Donor 2, HCQ 5.00 μg/mL alone, read-out: FIE (fractional inhibitory effect), TNF-α release): 2% | inhibition at 10 µg/mL ([4]; Donor 2, HCQ 10.00 μg/mL alone, read-out: FIE (fractional inhibitory effect), IL-1α release): 68% | inhibition at 10 µg/mL ([4]; Donor 2, HCQ 10.00 μg/mL alone, read-out: FIE (fractional inhibitory effect), IL-6 release): 11% | inhibition at 10 µg/mL ([4]; Donor 2, HCQ 10.00 μg/mL alone, read-out: FIE (fractional inhibitory effect), MIP-1α release): 0% | inhibition at 10 µg/mL ([4]; Donor 2, HCQ 10.00 μg/mL alone, read-out: FIE (fractional inhibitory effect), TNF-α release): 18% | inhibition at 20 µg/mL ([4]; Donor 2, HCQ 20.00 μg/mL alone, read-out: FIE (fractional inhibitory effect), IL-1α release): 63% | inhibition at 20 µg/mL ([4]; Donor 2, HCQ 20.00 μg/mL alone, read-out: FIE (fractional inhibitory effect), IL-6 release): 47% | inhibition at 20 µg/mL ([4]; Donor 2, HCQ 20.00 μg/mL alone, read-out: FIE (fractional inhibitory effect), MIP-1α release): 0% | IL-6, relative inhibition of cytokine release (BALF) [5]: 0.08
